Usually TD50 stands for the dose at which the toxic effect under study appears in half of the subjects. Read a low TD50 as harm at a small dose. As usually defined, the ED50 is the dose that gives a 50% effect, or the effect in half of the subjects.

Data set [1] has as its system mice. Briefly: Neurotoxicity test (Rotarod test). The class given is in vivo. The method, then:
(§1) The antiepileptic pharmacological tests were carried out using the anti-epileptic drug development program implemented by the National Institutes of Health (NIH), comprising the Maximal Electroshock Seizure (MES) for evaluating antiepileptic activity and the Rotarodtest for examining neurotoxicity. In order to further study and evaluate the pharmacological mechanism of anticonvulsant effect in different chemical models, two classic chemical model pentarotetrazole and 3-mercaptopropionic acid were used.
(§2) Procedure: experimental mice were place on a rotating bar fatigue device rotating at 16 revolutions per minute at 0.25 h, 0.5 h, 1 h, and 2 h after intragastric administration, respectively. […] According to the dosing regimen, concentration gradient was designed and the mice was administered with the test compound at different concentration gradient and observed for the anticonvulsant activity. Half toxic dose (TD50) was calculated according to the following equation: TD50=1 g^−1[Xm−i(ΣP−0.5)] SX50=i(ΣP−σP^2/n−1)^1/2 • 95% confidence limit for TD50=1 g^−1(1 gTD50±1.96 SX50) • wherein the meanings of the symbols in the equation are as follows: • Xm common logarithm for the maximum dose; • i common logarithm for the ratio between doses • p positive rate for each group, expressed in decimal places • n the number of animals per group • SX50 standard error of 1 gTD50
On the technique in general: In the rotarod test animals must keep their balance on a rotating rod.

A short description of data set [2]: Neurotoxicity test (Rotarod test). The data set is classed as in vivo. The following applies: KM, mouse, in vivo, po. On the procedure: as §1, §2
Data set [3] deals with pentylenetetrazole-induced epilepsy mice model. The experiment in a line: Pentylenetetrazole-induced epilepsy experimental model. The following applies: for clonic seizures / latency / mortality rate / tonic seizures: n=6.
Procedure: In order to deduce the possible anticonvulsant mechanism of α-Asaronol 3,4,5-trimethoxycinnamate, in this study, pentylenetetrazole, 3-mercaptopropionic acid and other chemical test modes were used to initially evaluate the anticonvulsant activity of the test compound (i.g: 160 mg/kg, 80 mg/kg, 40 mg/kg).
(3) Pentylenetetrazole-induced Epilepsy Experimental Model
Procedure: mice were randomly divided into five groups: treatment group (i.g: 160 mg/kg, 80 mg/kg, 40 mg/kg), control group and blank group (n=6). The treatment group was intragastrically administrated with the test compound, the control group with the positive drug carbamazepine, and the blank group with physiological saline. After 30 minutes, the mice were intragastrically administrated with pentylenetetrazole at 200 mg/kg. Each test animal was placed in one cage and observed for 60 minutes. The latency of clonic seizures, the number of clonic seizures, the number of tonic seizures, and the number of deaths for mice of each group were recorded.
The subject of another data set is KM mice. The experiment in a line: Maximal Electroshock Seizure (MES) test. The class given is in vivo. The following applies: for MES: 6 mice. The method, then: as §1
(1) Maximal Electroshock Seizure (MES)
Procedure: KM mice were subjected to the following preliminary screening before they were tested, and only qualified mice were screened for the next experiment. The screening method was performed as follows: the day before the test, the test mice electrically stimulated at 15V, 60 Hz, wherein two electrodes were clamped in each ear of the mice and powered for 0.45 seconds. Mice with hind limb rigidity were included in the experimental mice and used for later experiments. The Maximal Electroshock Seizure tolerance test was performed as follows: mice were administered intragastrically with the test compound after it is dissolved, and then at 0.25 h, 0.5 h, 1 h, 2 h, 3 h and 4 h after the administration, stimulated with the electrodes in their ears at 15V, 60 Hz electric stimulation for 0.45 s, respectively. […] According to the dosing regimen, concentration gradient was designed and the mice were administered with the test compound at different concentration gradient and observed for the anticonvulsant activity. Finally, the half effective dose of the test compound at the maximum anticonvulsant activity was calculated according to the following equation: ED50=1 g^−1[Xm−i(ΣP−0.5)] SX50=i(ΣP−ΣP^2/n−1)^1/2 • 95% confidence limit for ED50=1 g^−1(1 gED50±1.96 SX50) • wherein the meanings of the symbols in the equation are as follows: • Xm common logarithm for the maximum dose; • i common logarithm for the ratio between doses • p positive rate for each group, expressed in decimal places • n the number of animals per group • SX50 standard error of 1 gED50
(In general: The maximal electroshock test induces tonic seizures with an electrical stimulus.)

Data set [4] relates to 3-mercaptopropionic acid-induced epilepsy mice model. The experiment in a line: 3-mercaptopropionic acid-induced epilepsy experimental model. The class given is in vivo. The following applies: for clonic seizures / latency / mortality rate / tonic seizures: n=6. From the text:
(4) 3-mercaptopropionic Acid-induced Epilepsy Experimental Model

Data set [5] concerns mice. As to conditions: Wang S. S. 1995; cited from earlier work.

Marks after values point to notes of the source that are not given here.

As for `COc1cc(OC)c(OC)cc1/C=C/COC(=O)/C=C/c1cc(OC)c(OC)c(OC)c1`, in the data set on mice [1] (mice, i.g., rotarod TD50 / MES ED50), the “PI, protection index (TD50/ED50)” value was found to be 10.4. For the same compound, in the data set on mice [1] (mouse, in vivo), the “toxicity (in words)” value is “did not show significant toxicity”. Moreover, in data set [2], the TD50 came out at 940 mg/kg. Besides, the “time of clonic seizure compared with the physiological saline group” value in data set [3] (160 mg/kg, 80 mg/kg, 40 mg/kg, p<0.05) was “significantly prolong”; in data set [4] (160 mg/kg, 80 mg/kg, p<0.05), “significantly prolong”. Besides, the “effect on inhibiting the tonic seizure and reducing the mortality compared with carbamazepine” value in data set [3] (at the same dose) is recorded as “comparable effect”; in data set [4] (160 mg/kg, 80 mg/kg), “comparable effect”. For the same compound, the clonic seizures in data set [3] (i.g. 40 mg/kg) was 100%; in data set [3] (i.g. 80 mg/kg) it was 83.3%; in data set [3] (i.g. 160 mg/kg), 50%; in data set [4] (i.g. 40 mg/kg) it was 100%; in data set [4] (i.g. 80 mg/kg), 83.3%; in data set [4] (i.g. 160 mg/kg), 50%. The latency in data set [3] (i.g. 40 mg/kg) was determined as 205.6 ± 40.5 s; in data set [3] (i.g. 80 mg/kg) it was 253.6 ± 58.2 s; in data set [3] (i.g. 160 mg/kg, 30 min before pentylenetetrazole 200 mg/kg) it was 370.0 ± 84.8 s; in data set [4] (i.g. 40 mg/kg), 185.3 ± 39.8 s; in data set [4] (i.g. 80 mg/kg), 192.8 ± 85.1 s; in data set [4] (i.g. 160 mg/kg, 30 min before 3-mercaptopropionic acid 60 mg/kg), 241.5 ± 80.4 s. Further, the mortality rate in data set [3] (i.g. 40 mg/kg) came to 100%; in data set [3] (i.g. 80 mg/kg) it was 66.7%; in data set [3] (i.g. 160 mg/kg), 16.7%; in data set [4] (i.g. 40 mg/kg), 50%; in data set [4] (i.g. 80 mg/kg), 33.3%; in data set [4] (i.g. 160 mg/kg), 33.3%. Besides, the tonic seizures in data set [3] (i.g. 40 mg/kg) came out at 50%; in data set [3] (i.g. 80 mg/kg) it was 33.3%; in data set [3] (i.g. 160 mg/kg) it was 33.3%; in data set [4] (i.g. 40 mg/kg), 50%; in data set [4] (i.g. 80 mg/kg), 33.3%; in data set [4] (i.g. 160 mg/kg), 33.3%. In addition, the ED50 in the data set with KM mice (Mus musculus, po, MES, mice, i.g., 95% confidence limit 63.1-128.8, read-out: ED50 (half effective dose)) came out at 90.3 mg/kg. Further, the MES in the data set with KM mice (i.g. 40 mg/kg, 0.25 h) is reported as 4/6; in the data set with KM mice (i.g. 40 mg/kg, 0.5 h), 5/6; with KM mice (i.g. 40 mg/kg, 1 h), 6/6; in the data set on KM mice (i.g. 40 mg/kg, 2 h), 6/6; with KM mice (i.g. 40 mg/kg, 3 h), 6/6; in the data set on KM mice (i.g. 40 mg/kg, 4 h), 6/6. Also, the MES with KM mice (i.g. 56 mg/kg, 0.25 h) was 3/6; with KM mice (i.g. 56 mg/kg, 0.5 h) it was 4/6; in the data set on KM mice (i.g. 56 mg/kg, 1 h), 4/6; with KM mice (i.g. 56 mg/kg, 2 h) it was 5/6; in the data set on KM mice (i.g. 56 mg/kg, 3 h), 5/6; in the data set with KM mice (i.g. 56 mg/kg, 4 h) it was 5/6. Also, the MES with KM mice (i.g. 78 mg/kg, 0.25 h) is recorded as 3/6; in the data set on KM mice (i.g. 78 mg/kg, 0.5 h) it was 3/6; in the data set on KM mice (i.g. 78 mg/kg, 1 h) it was 3/6; with KM mice (i.g. 78 mg/kg, 2 h), 3/6; in the data set with KM mice (i.g. 78 mg/kg, 3 h), 4/6; in the data set with KM mice (i.g. 78 mg/kg, 4 h) it was 4/6. For the same compound, the MES is listed as 2/6 in the data set with KM mice (i.g. 110 mg/kg, 0.25 h); 1/6 in the data set with KM mice (i.g. 110 mg/kg, 0.5 h); 1/6 with KM mice (i.g. 110 mg/kg, 1 h); 2/6 in the data set on KM mice (i.g. 110 mg/kg, 2 h); 3/6 in the data set on KM mice (i.g. 110 mg/kg, 3 h); 3/6 in the data set on KM mice (i.g. 110 mg/kg, 4 h). Moreover, the MES with KM mice (i.g. 154 mg/kg, 0.25 h after administration) was 1/6^c; in the data set with KM mice (i.g. 154 mg/kg, 0.5 h), 0; in the data set on KM mice (i.g. 154 mg/kg, 1 h) it was 1/6; in the data set on KM mice (i.g. 154 mg/kg, 2 h) it was 1/6; in the data set on KM mice (i.g. 154 mg/kg, 3 h), 3/6; with KM mice (i.g. 154 mg/kg, 4 h), 3/6. Also, the “anticonvulsant activity in the Maximal Electroshock Seizure test (in words)” value with KM mice (mice, i.g.) was “good anticonvulsant activity”. Further, in data set [4] (mouse, in vivo), the “3-mercaptopropionic acid-induced seizures (in words)” value is on record as “moderately reduce”.
Consider `COC(=O)C=Cc1cc(OC)c(OC)c(OC)c1` [M-TMCA, methyl 3,4,5-trimethoxycinnamic acid], for which the “time of pentobarbital sodium-induced sleep in mice” value (from here on “time … in mice”) in the data set on mice [5] is recorded as “prolong”.
Turning to `COc1ccc(C=CC(=O)O)cc1` [PMCA, p-methoxycinnamic acid], the “time … in mice” value in the data set with mice [5] is on record as “prolong”.
Regarding `COc1cc(C=CC(=O)O)cc(OC)c1OC` [TMCA, 3,4,5-trimethoxycinnamic acid], the “time … in mice” value in the data set with mice [5] is “prolong”.
For `NC(=O)N1c2ccccc2C=Cc2ccccc21` [carbamazepine, reference compound], in data set [3] (i.g. 83 mg/kg), the clonic seizures amounted to 100%, the latency came out at 476.8 ± 100.5 s, the mortality rate stood at 50% and the tonic seizures was 33.3%. In addition, in data set [4] (i.g. 83 mg/kg), the clonic seizures turned out to be 100%, the latency amounted to 277.2 ± 93.1 s, the mortality rate is 33.3% and the tonic seizures worked out at 33.3%.

The record behind these values is patent publication US10131619B2, “α-Asary-laldehyde ester, preparation method therefor, and application thereof” (NORTHWEST UNIVERSITY, priority 2014, dated 2018).
